# Measurements taken from patent US20080160617A1, “AGENT FOR INDUCING EMBRYONIC STEM CELL TO ECTODERMAL CELL, METHOD FOR OBTAINING THE SAME, AND USE OF THE SAME” (KYOWA HAKKO KOGYO CO., LTD., priority 2001, published 2008).
# Key:
# embryonic stem cell = settings: cited from earlier work
# ES cell EB5 [1] = experiment: Nerve differentiation of ES cell EB5 by solution recovered from PA6 cell with polyanion-containing Hanks' balanced salt solution (SDIA activity); format: cell-based, mouse; settings: 14 days
# Description: ES cell EB5 (H. Niwa et al., Nature Genet., 24, 372 (2000); obtained from Dr. Hitoshi Niwa at the Molecular Control Medical Science Course, Medical School, Osaka University) was used as the embryonic stem cell, and an MC3T3-G2/PA6 cell (H. Kodama et al., J. Cell Physiol., 112) 89 (1982), hereinafter referred to as “PA6 cell”) as the stromal cell, and the ES cell EB5 was cultured in accordance with the method described in Reference Example 1 and used in the test.
# Cells of PA6 cultured to almost confluent state on a dish of 10 cm in diameter were washed twice with 10 ml of PBS(−) (manufactured by Invitrogen) and once with 10 ml of Hanks' balanced salt solution (manufactured by Invitrogen), 3 ml of Hanks' balanced salt solution containing from 0.001% (w/v) to 0.1% (w/v) of heparin (manufactured by Nacalai Tesque) was added thereto, the mixture was allowed to stand at 37° C. for 30 minutes, and the solution was recovered. The solution obtained was added to the PA6 on the 10 cm, dish washed in the same manner described above, the mixture was allowed to stand at 37° C. for 30 minutes in the same manner, and then the solution was recovered. This process was carried out on PA6 on the other 10 cm dish, and effect of the recovered solution ES cell was examined. In this case, a solution recovered in the same manner by using a heparin-free Hanks' balanced salt solution was used as a negative control.
# The solution obtained in the above was mixed at a ratio of 1:2 with a solution containing the ES cell EB5 which had been adjusted to a single cell state in a serum-free medium by the method described in Reference Example 1, and the mixture was inoculated into a gelatin-coated plastic culture dish at a cell density of 1,250 cells/cm^2 and incubated at 37° C. for 14 days in a CO2 incubator in an atmosphere of 5% carbon dioxide.
# The cells after the culturing were fixed by 4% paraformaldehyde solution and subjected to immune staining in accordance with the method described in Using Antibodies, Cold Spring Harbor Laboratory Press (1999), using an anti-NCAM antibody (manufactured by Chemicon) as a general nerve marker, an anti-class III β-tubulin antibody (manufactured by Babco) as a nerve-specific marker and an anti-nestin antibody (manufactured by Pharmingen) as a nerve precursor cell-specific marker.
# Compounds other than heparin with which the SDIA activity factor can be recovered were searched by the method for recovering an SDIA activity factor described in Example 1. Using a Hanks' balanced salt solution containing, instead of heparin, 0.001% (w/v) dextran sulfate (manufactured by Sigma), 0.001% (w/v) polyvinyl sulfate (manufactured by Sigma), 0.001% (w/v) polystyrene sulfonate (manufactured by Tosoh) 0.1% (w/v) carboxymethylcellulose (manufactured by, Wako Pure Chemical Industries) or 0.1% (w/v) hyaluronic acid (manufactured by Kibun Chemical Foods), respective solutions were recovered by the method described in Example 1 to examine their effects on the ES cell. In this case, a solution recovered in the same manner by using a heparin-free Hanks' balanced salt solution was used as a negative control.
# ES cell EB5 [2] = experiment: Heparin treatment of PA6 feeder cell before paraformaldehyde fixation, nerve differentiation of ES cell EB5; format: cell-based, mouse; settings: PA6 cell cultured 2 days in medium containing 200 ng/ml heparin, then paraformaldehyde-fixed; 8 days coculture
# Description: According to the method described in Reference Example 3, the ES cell EB5 was cultured for 8 days in the serum-free medium without BMP4 by using the paraformaldehyde-fixed PA6 cell as a feeder cell. Also, the case when the PA6 cell was cultured in a medium containing heparin (GIBCO BRL) (hereinafter referred to as “heparin treatment”) was compared with the case when culturing in a heparin-free medium. That is, dishes in which the PA6 cell proliferated to almost confluent on a 3 cm tissue culture dish was cultured for 2 days in a medium containing 200 ng/ml of heparin and dishes in which it was cultured for 2 days in a heparin-free medium were prepared, washed twice with PBS(−) and subjected to paraformaldehyde fixation, and the ES cell EB5 was inoculated onto the paraformaldehyde-fixed PA6 cell at a density of 200 cells/dish, the medium was exchanged with a fresh medium on the 4th, 6th and 7th days, and then the cells were cultured at 37° C. for 8 days in a stream of 5% carbon dioxide in a CO2 incubator.
# Eight days after coculturing, the cells were fixed according to the method described in Reference Example 1, and the colonies formed as a result of the coculturing of the ES cell EB5 with PA6 cell were immunologically stained with the anti-NCAM antibody, anti-tubulin antibody and anti-nestin antibody.
# [3] = solution recovered from PA6 cell with Hanks' solution containing 0.1% (w/v) polyanion instead of heparin
# [4] = solution recovered from PA6 cell with Hanks' solution containing 0.001% (w/v) polyanion instead of heparin
substance,measurement,setting,value
EGF: epidermal growth factor,SDIA-like activity to induce differentiation of embryonic stem cell into ectoderm system cells,embryonic stem cell,no SDIA-like activity
HGF: hepatocyte growth factor,SDIA-like activity to induce differentiation of embryonic stem cell into ectoderm system cells,embryonic stem cell,no SDIA-like activity
LIF: leukemia inhibitory factor,SDIA-like activity to induce differentiation of embryonic stem cell into ectoderm system cells,embryonic stem cell,no SDIA-like activity
PDGF,SDIA-like activity to induce differentiation of embryonic stem cell into ectoderm system cells,embryonic stem cell,no SDIA-like activity
bFGF: basic fibroblast growth factor,SDIA-like activity to induce differentiation of embryonic stem cell into ectoderm system cells,embryonic stem cell,no SDIA-like activity
carboxymethylcellulose,ratio of colonies expressing class III β-tubulin,ES cell EB5 [1]; [3],34.6%
dextran sulfate,ratio of colonies expressing class III β-tubulin,ES cell EB5 [1]; [4],67.2%
heparin,ratio of colonies expressing class III β-tubulin,"ES cell EB5 [1]; solution recovered from PA6 cell with Hanks' balanced salt solution containing 0.001% (w/v) heparin, mixed 1:2 with ES cell EB5",68%
same,differentiation of ES cell into nerve cell on heparin-treated PA6 feeder cell,ES cell EB5 [2],significant differentiation of ES cell into nerve cell was not observed
hyaluronic acid,ratio of colonies expressing class III β-tubulin,ES cell EB5 [1]; [3],19.8%
polystyrene sulfonate,ratio of colonies expressing class III β-tubulin,ES cell EB5 [1]; [4],48.7%
polyvinyl sulfate,ratio of colonies expressing class III β-tubulin,ES cell EB5 [1]; [4],54.8%
